Columns and labels:
[1] = target: T1, Glycogen phosphorylase, muscle form (Oryctolagus cuniculus, UniProt P00489); experiment: Inhibition of rabbit muscle glycogen phosphorylase b by cheng-prusoff equation
T1 sequence (P00489 whole entry): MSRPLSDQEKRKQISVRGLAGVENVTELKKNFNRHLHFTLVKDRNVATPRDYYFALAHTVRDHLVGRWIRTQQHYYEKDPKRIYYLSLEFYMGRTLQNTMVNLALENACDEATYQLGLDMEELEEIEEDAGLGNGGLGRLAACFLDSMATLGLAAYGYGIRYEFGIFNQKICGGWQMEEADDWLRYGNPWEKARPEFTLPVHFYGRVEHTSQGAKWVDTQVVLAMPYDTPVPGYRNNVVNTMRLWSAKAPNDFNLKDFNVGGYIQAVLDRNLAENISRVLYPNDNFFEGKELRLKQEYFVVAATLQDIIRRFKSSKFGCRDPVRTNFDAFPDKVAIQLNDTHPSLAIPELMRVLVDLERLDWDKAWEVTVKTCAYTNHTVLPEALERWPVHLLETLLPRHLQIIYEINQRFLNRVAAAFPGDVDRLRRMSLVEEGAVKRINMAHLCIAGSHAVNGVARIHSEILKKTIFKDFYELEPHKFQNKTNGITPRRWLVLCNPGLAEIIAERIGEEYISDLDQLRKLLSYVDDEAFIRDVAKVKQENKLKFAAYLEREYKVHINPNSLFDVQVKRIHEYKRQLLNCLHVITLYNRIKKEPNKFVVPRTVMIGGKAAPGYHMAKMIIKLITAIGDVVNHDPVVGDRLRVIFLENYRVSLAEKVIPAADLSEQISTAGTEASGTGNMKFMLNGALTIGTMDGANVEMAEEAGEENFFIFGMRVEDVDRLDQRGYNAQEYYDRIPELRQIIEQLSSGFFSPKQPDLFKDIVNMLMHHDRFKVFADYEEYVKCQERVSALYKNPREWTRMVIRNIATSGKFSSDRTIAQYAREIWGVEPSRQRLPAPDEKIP

[2] = target: T1, Glycogen phosphorylase, muscle form; experiment: Inhibition of rabbit muscle glycogen phosphorylase b

Row | SMILES | Ki [1] [µM] | IC50 [2] [µM]
1 | COc1cc(C(=O)N[C@@H]2O[C@H](CO)[C@@H](O)[C@H](O)[C@H]2O)cc2c1OCCO2 | 232 | 580
2 | O=C(N[C@@H]1O[C@H](CO)[C@@H](O)[C@H](O)[C@H]1O)c1ccc2c(c1)OCCO2 | 252 | 630
3 | O=C(N[C@@H]1O[C@H](CO)[C@@H](O)[C@H](O)[C@H]1O)[C@@H]1COc2ccccc2O1 | 120 | 300
4 | O=C(N[C@@H]1O[C@H](CO)[C@@H](O)[C@H](O)[C@H]1O)c1cc(Br)c2c(c1)OCCO2 | 268 | 670
5 | O=C(N[C@@H]1O[C@H](CO)[C@@H](O)[C@H](O)[C@H]1O)[C@H]1COc2ccccc2O1 | 128 | 320
6 | O=C(N[C@@H]1O[C@H](CO)[C@@H](O)[C@H](O)[C@H]1O)C1=COc2ccccc2O1 | 85 | 125
